Experimental data published in patent publication US20040076974A1, “Liver necrosis predictive genes” (priority 2002, published 2004).
Where “and” joins values, the source holds several entries; their conditions need not be identical. Identical values can stand only once. Like-named read-outs stand apart in the source and are kept apart here.

Assays:
Sprague Dawley rats = conditions: for Liver Necrosis / Score (histopathology liver necrosis severity score): rat, intraperitoneal; for Liver Necrosis: 72 hours after treatment; for Score (histopathology liver necrosis severity score): 72 hours, 1 = not remarkable, 2 and higher increasing severity
Outline: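 Toxicity calls (necrosis present or absent at 72 h) and histopathology scores were correlated with tissue gene expression from Crl:CD Sprague Dawley rats. Animals, usually 3 treated with compound by i.p. route and 3 given vehicle, were killed at 6, 24 or 72 h and tissues frozen immediately in liquid nitrogen.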

[1] = tested on: toxicologically relevant rat genes (rat CT array); conditions: 24 h

## ClC(Cl)(Cl)Cl [carbon tetrachloride]
Sprague Dawley rats; 72 h, dose 250
  Liver Toxicity Necrosis Classification: yes
Sprague Dawley rats; 72 h, dose 1000
  Liver Toxicity Necrosis Classification: yes
Sprague Dawley rats; compound-dose group at 72 h, CCL4 1000, DMN 20, LPS 8
  Liver Toxicity Necrosis Classification: yes
Sprague Dawley rats; compound-dose group at 72 h, dose 250
  Liver Toxicity Necrosis Classification: yes
Sprague Dawley rats; compound-dose group at 72 h, dose 1000
  Liver Toxicity Necrosis Classification: yes
Sprague Dawley rats; compound-dosegroup at 72 h, dose 250
  Liver Toxicity Necrosis Classification: yes
Sprague Dawley rats; compound-dosegroup at 72 h, dose 1000
  Liver Toxicity Necrosis Classification: yes
Sprague Dawley rats; dose 0.25 ml/kg
  Liver Necrosis: Yes
  Score (histopathology liver necrosis severity score): 3
Sprague Dawley rats; dose 1 ml/kg
  Liver Necrosis: Yes
  Score (histopathology liver necrosis severity score): 6
[1]; dose 250, listed as CCL4
  14-3-3 zeta expression (treatment/control): 1.66 and 1.924 and 1.756
  17-beta hydroxysteroid dehydrogenase, type 2 expression (treatment/control): 1.054 and 0.5508 and 0.756
  Cathepsin L, sequence 2 expression (treatment/control): 1.932 and 2.846 and 1.646
  Dynamin-1 (D100) expression (treatment/control): 0.7967 and 0.581 and 0.7391
  Gadd45 expression (treatment/control): 2.248 and 2.519 and 1.891
  Gamma-actin, cytoplasmic expression (treatment/control): 1.21 and 1.729 and 1.683
  Insulin-like growth factor binding protein 1 expression (treatment/control): 1.423 and 1.69 and 1.605
  L-gulono-gamma-lactone oxidase expression (treatment/control): 0.5457 and 0.345 and 0.5416
  Matrin F/G expression (treatment/control): 0.8257 and 0.6948 and 0.7947
  Ornithine decarboxylase expression (treatment/control): 1.229 and 1.514 and 1.453
  PAR interacting protein expression (treatment/control): 1.251 and 1.611 and 1.178
  Phase-1 RCT-33 expression (treatment/control): 0.7
  Phase-1 RCT-36 expression (treatment/control): 0.9183 and 0.9601
  Phase-1 RCT-38 expression (treatment/control): 0.6811 and 0.8069
  Phase-1 RCT-39 expression (treatment/control): 1.553
  Phase-1 RCT-40 expression (treatment/control): 0.8329
  Phase-1 RCT-48 expression (treatment/control): 0.8905
  Phase-1 RCT-49 expression (treatment/control): 1.595 and 1.935 and 1.969
  Phase-1 RCT-50 expression (treatment/control): 1.199 and 1.292
  Phase-1 RCT-68 expression (treatment/control): 1.615
  Phase-1 RCT-78 expression (treatment/control): 0.6214
  Phase-1 RCT-83 expression (treatment/control): 0.8265 and 0.5965 and 0.5296
  Phase-1 RCT-89 expression (treatment/control): 0.7738 and 0.5787 and 0.6881
  Phase-1 RCT-92 expression (treatment/control): 0.6412 and 0.598 and 0.6063
  Phase-1 RCT-128 expression (treatment/control): 0.7659 and 0.5352 and 0.6882
  Phase-1 RCT-144 expression (treatment/control): 1.636 and 2.462 and 1.54
  Phase-1 RCT-145 expression (treatment/control): 1.894
  Phase-1 RCT-180 expression (treatment/control): 1.103
  Phase-1 RCT-182 expression (treatment/control): 0.5663 and 0.6692
  Phase-1 RCT-213 expression (treatment/control): 1.658 and 1.455
  Phase-1 RCT-256 expression (treatment/control): 0.6795 and 0.8008
  Phase-1 RCT-264 expression (treatment/control): 0.5556 and 0.3693 and 0.5559
  Phase-1 RCT-288 expression (treatment/control): 0.6979 and 0.5773 and 0.6386
  Phase-1 RCT-291 expression (treatment/control): 0.7629 and 0.7701
  Phase-1 RCT-295 expression (treatment/control): 1.942 and 1.579
  Ribosomal protein S17 expression (treatment/control): 1.826 and 2.664 and 2.129
  Senescence marker protein-30 expression (treatment/control): 0.7864 and 0.5048 and 0.8299
  Zinc finger protein expression (treatment/control): 1.078 and 1.318 and 1.451
[1]; dose 1000
  14-3-3 zeta expression (treatment/control): 2.165
  17-beta hydroxysteroid dehydrogenase, type 2 expression (treatment/control): 0.5477
  Cathepsin L, sequence 2 expression (treatment/control): 4.767
  Dynamin-1 (D100) expression (treatment/control): 0.4373
  Gadd45 expression (treatment/control): 2.03
  Gamma-actin, cytoplasmic expression (treatment/control): 2.857
  Insulin-like growth factor binding protein 1 expression (treatment/control): 2.908
  L-gulono-gamma-lactone oxidase expression (treatment/control): 0.2874
  Matrin F/G expression (treatment/control): 0.5748
  Ornithine decarboxylase expression (treatment/control): 2.004
  PAR interacting protein expression (treatment/control): 1.736
  Phase-1 RCT-33 expression (treatment/control): 0.4824
  Phase-1 RCT-36 expression (treatment/control): 0.6382
  Phase-1 RCT-38 expression (treatment/control): 0.5871
  Phase-1 RCT-39 expression (treatment/control): 1.821
  Phase-1 RCT-40 expression (treatment/control): 0.7596
  Phase-1 RCT-48 expression (treatment/control): 0.9803
  Phase-1 RCT-49 expression (treatment/control): 2.488
  Phase-1 RCT-50 expression (treatment/control): 1.792
  Phase-1 RCT-68 expression (treatment/control): 1.656
  Phase-1 RCT-78 expression (treatment/control): 0.5578
  Phase-1 RCT-83 expression (treatment/control): 0.3247
  Phase-1 RCT-89 expression (treatment/control): 0.4606
  Phase-1 RCT-92 expression (treatment/control): 0.3009
  Phase-1 RCT-128 expression (treatment/control): 0.3095
  Phase-1 RCT-144 expression (treatment/control): 2.627
  Phase-1 RCT-145 expression (treatment/control): 1.753
  Phase-1 RCT-180 expression (treatment/control): 1.291
  Phase-1 RCT-182 expression (treatment/control): 0.3598
  Phase-1 RCT-207 expression (treatment/control): 2.086
  Phase-1 RCT-213 expression (treatment/control): 1.988
  Phase-1 RCT-256 expression (treatment/control): 0.6382
  Phase-1 RCT-264 expression (treatment/control): 0.2087
  Phase-1 RCT-288 expression (treatment/control): 0.4221
  Phase-1 RCT-291 expression (treatment/control): 0.5561
  Phase-1 RCT-295 expression (treatment/control): 2.11
  Phase-1 RCT-296 expression (treatment/control): 0.2278
  Ribosomal protein S17 expression (treatment/control): 3.461
  Senescence marker protein-30 expression (treatment/control): 0.2057
  Zinc finger protein expression (treatment/control): 1.697
